Organism: Rattus norvegicus
Assay: Open TG-GATES - Regimen: Single
Assay type: toxicity, organism-based, Sprague-Dawley
Parameters: regimen Single, gender Male, age 6 weeks
Details: in vivo, po, route gavage; for TG / TP / gamma-GTP / ALT / AST / CRE / Ca / Cl / DBIL / GLC / K / LDH / Na / PL / RALB / TBIL / TC / ALP: tissue Plasma; for APTT / Bas / Eos / Fbg / Hb / Ht / Lym / MCHC / MCV / Mono / PT / Plat / RBC / WBC: tissue Blood; for KIDNEY_L / KIDNEY_R / KIDNEY_TOTAL: tissue Kidney; for LIVER: tissue Liver
[1] = 0 mg/kg, 24 h, dose level Control

Q: Which results are given for `COc1ccc([C@@H]2Sc3ccccc3N(CCN(C)C)C(=O)[C@@H]2OC(C)=O)cc1` [DILTIAZEM]?
A: TG [1]: 84.2 mg/dL; TP [1]: 5.4 g/dL; gamma-GTP [1]: 1 IU/L; TERMINAL_BW (80 mg/kg, 3 h, dose level Low): 186.4 g; APTT (80 mg/kg, 3 h, dose level Low): 17.7 s; Bas (80 mg/kg, 3 h, dose level Low): 0.4%; Eos (80 mg/kg, 3 h, dose level Low): 0.2%; Fbg (80 mg/kg, 3 h, dose level Low): 282.2 mg/dL; Hb (80 mg/kg, 3 h, dose level Low): 12.8 g/dL; Ht (80 mg/kg, 3 h, dose level Low): 40%; Lym (80 mg/kg, 3 h, dose level Low): 70.8%; MCHC (80 mg/kg, 3 h, dose level Low): 32.1%; MCV (80 mg/kg, 3 h, dose level Low): 66.5 fL; Mono (80 mg/kg, 3 h, dose level Low): 3.4%; PT (80 mg/kg, 3 h, dose level Low): 14.7 s; Plat (80 mg/kg, 3 h, dose level Low): 124.6 x10_4/uL; RBC (80 mg/kg, 3 h, dose level Low): 601.8 x10_4/ul; WBC (80 mg/kg, 3 h, dose level Low): 115.4 x10_2/uL; KIDNEY_L (80 mg/kg, 3 h, dose level Low): 0.9 g; KIDNEY_R (80 mg/kg, 3 h, dose level Low): 0.8 g; KIDNEY_TOTAL (80 mg/kg, 3 h, dose level Low): 1.7 g; LIVER (80 mg/kg, 3 h, dose level Low): 8.4 g; ALT (80 mg/kg, 3 h, dose level Low): 50.8 IU/L; AST (80 mg/kg, 3 h, dose level Low): 85.6 IU/L; CRE (80 mg/kg, 3 h, dose level Low): 0.2 mg/dL; Ca (80 mg/kg, 3 h, dose level Low): 10.8 mg/dL; Cl (80 mg/kg, 3 h, dose level Low): 106.6 meq/L; DBIL (80 mg/kg, 3 h, dose level Low): 0.014 mg/dL; GLC (80 mg/kg, 3 h, dose level Low): 183.4 mg/dL; K (80 mg/kg, 3 h, dose level Low): 4.5 meq/L; LDH (80 mg/kg, 3 h, dose level Low): 74.8 IU/L; Na (80 mg/kg, 3 h, dose level Low): 142.2 meq/L; PL (80 mg/kg, 3 h, dose level Low): 134.8 mg/dL; RALB (80 mg/kg, 3 h, dose level Low): 2.5 g/dL; TBIL (80 mg/kg, 3 h, dose level Low): 0.032 mg/dL; TC (80 mg/kg, 3 h, dose level Low): 71.8 mg/dL; TG (80 mg/kg, 3 h, dose level Low): 60.2 mg/dL; TP (80 mg/kg, 3 h, dose level Low): 5.1 g/dL; gamma-GTP (80 mg/kg, 3 h, dose level Low): 1.2 IU/L; TERMINAL_BW (80 mg/kg, 6 h, dose level Low): 182.6 g; APTT (80 mg/kg, 6 h, dose level Low): 17 s; Bas (80 mg/kg, 6 h, dose level Low): 0%; Eos (80 mg/kg, 6 h, dose level Low): 0.8%; Fbg (80 mg/kg, 6 h, dose level Low): 314.8 mg/dL; Ht (80 mg/kg, 6 h, dose level Low): 40.5%; Lym (80 mg/kg, 6 h, dose level Low): 71.2%; MCHC (80 mg/kg, 6 h, dose level Low): 32.4%; MCV (80 mg/kg, 6 h, dose level Low): 67 fL; Mono (80 mg/kg, 6 h, dose level Low): 4.2%; PT (80 mg/kg, 6 h, dose level Low): 14.7 s; Plat (80 mg/kg, 6 h, dose level Low): 131.5 x10_4/uL; RBC (80 mg/kg, 6 h, dose level Low): 606 x10_4/ul; WBC (80 mg/kg, 6 h, dose level Low): 91.6 x10_2/uL; KIDNEY_L (80 mg/kg, 6 h, dose level Low): 0.8 g; KIDNEY_R (80 mg/kg, 6 h, dose level Low): 0.8 g; KIDNEY_TOTAL (80 mg/kg, 6 h, dose level Low): 1.6 g; LIVER (80 mg/kg, 6 h, dose level Low): 7.9 g; ALT (80 mg/kg, 6 h, dose level Low): 42.4 IU/L; AST (80 mg/kg, 6 h, dose level Low): 72.8 IU/L; CRE (80 mg/kg, 6 h, dose level Low): 0.2 mg/dL; Ca (80 mg/kg, 6 h, dose level Low): 11.1 mg/dL; Cl (80 mg/kg, 6 h, dose level Low): 106.8 meq/L; DBIL (80 mg/kg, 6 h, dose level Low): 0.014 mg/dL; GLC (80 mg/kg, 6 h, dose level Low): 176.8 mg/dL; K (80 mg/kg, 6 h, dose level Low): 4.1 meq/L; LDH (80 mg/kg, 6 h, dose level Low): 54 IU/L; Na (80 mg/kg, 6 h, dose level Low): 143.8 meq/L; PL (80 mg/kg, 6 h, dose level Low): 137.4 mg/dL; RALB (80 mg/kg, 6 h, dose level Low): 2.5 g/dL; TBIL (80 mg/kg, 6 h, dose level Low): 0.034 mg/dL; TC (80 mg/kg, 6 h, dose level Low): 79 mg/dL; TG (80 mg/kg, 6 h, dose level Low): 33.4 mg/dL; TP (80 mg/kg, 6 h, dose level Low): 5.3 g/dL; gamma-GTP (80 mg/kg, 6 h, dose level Low): 1 IU/L; TERMINAL_BW (80 mg/kg, 9 h, dose level Low): 181.8 g; Bas (80 mg/kg, 9 h, dose level Low): 0%; Eos (80 mg/kg, 9 h, dose level Low): 0.8%; Fbg (80 mg/kg, 9 h, dose level Low): 300.8 mg/dL; Hb (80 mg/kg, 9 h, dose level Low): 12.9 g/dL; Ht (80 mg/kg, 9 h, dose level Low): 40.2%; Lym (80 mg/kg, 9 h, dose level Low): 79.4%; MCHC (80 mg/kg, 9 h, dose level Low): 32.1%; MCV (80 mg/kg, 9 h, dose level Low): 66.7 fL; Mono (80 mg/kg, 9 h, dose level Low): 3%; PT (80 mg/kg, 9 h, dose level Low): 15.2 s; Plat (80 mg/kg, 9 h, dose level Low): 116.7 x10_4/uL; RBC (80 mg/kg, 9 h, dose level Low): 603.2 x10_4/ul; WBC (80 mg/kg, 9 h, dose level Low): 69.7 x10_2/uL; KIDNEY_L (80 mg/kg, 9 h, dose level Low): 0.9 g; KIDNEY_R (80 mg/kg, 9 h, dose level Low): 0.9 g; KIDNEY_TOTAL (80 mg/kg, 9 h, dose level Low): 1.7 g; LIVER (80 mg/kg, 9 h, dose level Low): 7.3 g; ALP (80 mg/kg, 9 h, dose level Low): 1382 IU/L; ALT (80 mg/kg, 9 h, dose level Low): 44 IU/L; AST (80 mg/kg, 9 h, dose level Low): 74.8 IU/L; CRE (80 mg/kg, 9 h, dose level Low): 0.1 mg/dL; Ca (80 mg/kg, 9 h, dose level Low): 10.7 mg/dL; Cl (80 mg/kg, 9 h, dose level Low): 105.8 meq/L; DBIL (80 mg/kg, 9 h, dose level Low): 0.016 mg/dL; GLC (80 mg/kg, 9 h, dose level Low): 176.8 mg/dL; K (80 mg/kg, 9 h, dose level Low): 4.1 meq/L; LDH (80 mg/kg, 9 h, dose level Low): 59.6 IU/L; Na (80 mg/kg, 9 h, dose level Low): 142 meq/L; PL (80 mg/kg, 9 h, dose level Low): 129.4 mg/dL; RALB (80 mg/kg, 9 h, dose level Low): 2.5 g/dL; TBIL (80 mg/kg, 9 h, dose level Low): 0.032 mg/dL; TC (80 mg/kg, 9 h, dose level Low): 69 mg/dL; TG (80 mg/kg, 9 h, dose level Low): 55.8 mg/dL; TP (80 mg/kg, 9 h, dose level Low): 5.1 g/dL; gamma-GTP (80 mg/kg, 9 h, dose level Low): 1 IU/L; TERMINAL_BW (80 mg/kg, 24 h, dose level Low): 195.1 g; Bas (80 mg/kg, 24 h, dose level Low): 0%; Eos (80 mg/kg, 24 h, dose level Low): 1%; Fbg (80 mg/kg, 24 h, dose level Low): 257 mg/dL; Hb (80 mg/kg, 24 h, dose level Low): 13.3 g/dL; Ht (80 mg/kg, 24 h, dose level Low): 40.6%; Lym (80 mg/kg, 24 h, dose level Low): 75%; MCHC (80 mg/kg, 24 h, dose level Low): 32.8%; MCV (80 mg/kg, 24 h, dose level Low): 67 fL; Mono (80 mg/kg, 24 h, dose level Low): 3.2%; PT (80 mg/kg, 24 h, dose level Low): 14.5 s; Plat (80 mg/kg, 24 h, dose level Low): 121.8 x10_4/uL; RBC (80 mg/kg, 24 h, dose level Low): 606 x10_4/ul; WBC (80 mg/kg, 24 h, dose level Low): 83.3 x10_2/uL; KIDNEY_L (80 mg/kg, 24 h, dose level Low): 0.9 g; KIDNEY_R (80 mg/kg, 24 h, dose level Low): 0.9 g; KIDNEY_TOTAL (80 mg/kg, 24 h, dose level Low): 1.7 g; LIVER (80 mg/kg, 24 h, dose level Low): 9.3 g; ALP (80 mg/kg, 24 h, dose level Low): 1732.2 IU/L; ALT (80 mg/kg, 24 h, dose level Low): 49 IU/L; AST (80 mg/kg, 24 h, dose level Low): 77.4 IU/L; CRE (80 mg/kg, 24 h, dose level Low): 0.2 mg/dL; Ca (80 mg/kg, 24 h, dose level Low): 11.2 mg/dL; Cl (80 mg/kg, 24 h, dose level Low): 106.8 meq/L; DBIL (80 mg/kg, 24 h, dose level Low): 0.016 mg/dL; GLC (80 mg/kg, 24 h, dose level Low): 187.4 mg/dL; K (80 mg/kg, 24 h, dose level Low): 4.3 meq/L; LDH (80 mg/kg, 24 h, dose level Low): 82 IU/L; Na (80 mg/kg, 24 h, dose level Low): 144.2 meq/L; PL (80 mg/kg, 24 h, dose level Low): 146.4 mg/dL; RALB (80 mg/kg, 24 h, dose level Low): 2.6 g/dL; TBIL (80 mg/kg, 24 h, dose level Low): 0.032 mg/dL

From ChEMBL document CHEMBL3885861, “Open TG-GATES”
